# Patent US10226435B2, “Compositions and methods for restoring the stratum corneum and treating dermatological diseases” (New York University, priority 2011, dated 2019)
# How the values were obtained:
# [1] = system: breast cancer; details: rats, ionizing radiation or DMBA; cited from earlier work
# [2] = system: inflammation-relevant gene expression; details: rat skin, x-rays; cited from earlier work
# [3] = system: mouse skin gene expression; assay: Gene expression microarray analysis of mouse skin; type: in vivo; details: for loricrin and filaggrin and vascular endothelial growth factor (VEGF) genes / matrix metalloproteinases: ingestion, animal models; for inflammation genes induced by UVR: per os daily for 4 days in 30 microL droplets prior to irradiation
# Procedure: Animals for the histology and microarray analysis were euthanized 24 hours after 4 days of terpene pre-feed and the UVR exposure.
# Gene expression microarray analysis was performed as follows: RNA was extracted from a 0.1 g sample of mouse skin and an equal quantity of keratinocytes by using the TRIZOL reagent (Invitrogen, Carlsbad, Calif., USA) according to the manufacture's instructions and 200 μg of total RNA was used for the isolation of poly A+mRNA by using Oligotex mRNA mini columns (QIAGEN, Valencia, Calif., USA). The final centrifugation was performed after the incubation with 1/10 volume of 3.0 M NaOAc, 2.5 volumes of ethanol and 1 μl glycogen (Boehringer Mannheim GmbH, Mannheim, Germany) at −20° C. overnight. Then the pellet was resuspended in diethylpyrocarbonate (DEPC)-treated water. RNA was labeled with biotin and hybridized to a Mouse genome 430_2 GeneChip® microarray (Affymetrix, Inc. Santa Clara, Calif., USA). Data from the Affymetrix mouse expression array chip were imported into the BRB-ArrayTools Version 3.3.0 developed by the Biometric Research Branch of the U.S. National Cancer Institute for normalization and analysis. […] A value of P≤0.001 was chosen as statistically significant. […] For these calculations the entire list of genes on the Affymetrix (mouse 430_2) microarray was used as the reference list.
# Mice were treated with either UVR or UVR+beta-damascenone, and samples of tissue were removed from the dorsal skin for RNA extraction and analysis on an Affymetrix Microarray System utilizing mouse whole genome array chips Affy 430_2. The UVR sample served as the control in this preliminary experiment.
# [4] = system: skin of SKH1 hairless mice; assay: Sunburn (erythema) prevention by terpenes in UVR-exposed hairless mice; details: 4 daily 30 microL droplets per os before 15 minute exposure to 3.0 kJ/m2 UVR
# Procedure: All experiments were performed with female hairless mice (SKH1) utilizing solar spectrum ultraviolet radiation (UVR). Each experiment was performed in triplicate including controls and UVR-exposed mice and included a total of 22 mice per experiment for a total of 66 mice. The protocol included untreated mice, UVR-irradiated mice as controls for the terpene treatments, UVR+terpene mice and terpene-only mice.
# Four solar simulating FS-20 fluorescent lamps were used to deliver 3 kJ/m^2 measured by a calibrated International Light UV radiometer at the lamp distance between 20 to 24 cm. The UVR dose was selected to be just above the minimal erythemal dose for producing a ‘sunburn’ reaction in mouse skin (this is very similar to the minimal erythemal dose of fair-skinned humans).
# Each terpene was given to each mouse per os (by mouth) in 15-30 μL droplets (˜15-30 μg) via micropipette once each day for 4 consecutive days prior to and/or subsequent to UVR exposure. Animals were observed and photographed every 24 hours for a period of 6-7 days after the irradiation. Each terpene was administered in pure form.
# The UVR exposure of 3 kJ/m^2 was delivered seven (7) days after the last dose was administered. The animals were observed and photographed. […] Liponeate, a triglyceride fraction of coconut oil was used as a diluent. Concentration 1, 10 and 100% were tested. […]
# [5] = system: human transplanted pancreatic adenocarcinomas; details: growth of human transplanted pancreatic adenocarcinomas; cited from earlier work
# [6] = system: dorsal skin of hairless mice; assay: β-damascenone-induced sunburn protection study in hairless mice; type: in vivo, mouse; details: read 5 days later
# Text: The present experiment will be performed for evaluating the effectiveness and persistence of sunburn protection afforded by different doses and exposure regimens of a test terpene, β-damascenone. Female SKH-1 strain mice, obtained from Charles River Breeding Labs, Wilmington, Mass., will be fed per os various amounts of the terpene as indicated in the following Tables 4 and 5.
# [7] = system: stratum corneum of Skh1 mouse skin; assay: Thickness of nucleated keratinocyte portion of epidermis versus stratum corneum, H&E histology; type: in vivo
# Text: 1. Skin and epidermal thickness (as measured by histology);
# [8] = system: skin; details: in vivo; cited from earlier work
# [9] = in vivo; cited from earlier work
# [10] = system: skin; details: in vivo; cited from earlier work; remark: listed apart in the source
# [11] = system: colon cancer; details: rats, 1,2-dimethylhydrazine induced, 8 mg/kg, p<0.01; cited from earlier work
# [12] = system: skin inflammation; details: topical preventive treatment 3 days at 10 mg/kg/day before induction; cited from earlier work
# [13] = UVR+beta-damascenone relative to UVR only
# [14] = Group 2, 20 uL × 4 by feeding tube, UVR 1.5 kJ/m^2 5 days after final dose
# [15] = Group 3, 10 uL × 4 by feeding tube, UVR 1.5 kJ/m^2 5 days after final dose
# [16] = Group 4 (replication of group 2), 20 uL × 4 by feeding tube, UVR 1.5 kJ/m^2 5 days after final dose
# [17] = Group 5, 10 uL × 1 by feeding tube, UVR 1.5 kJ/m^2 5 days after dose
# [18] = Group 6, 20 uL × 1 by feeding tube, UVR 1.5 kJ/m^2 5 days after dose
# [19] = Group 7, 40 uL × 1 by feeding tube, UVR 1.5 kJ/m^2 5 days after dose
# [20] = Groups 2 + 4 combined, 20 uL × 4, UVR 1.5 kJ/m^2 5 days after final dose
# [21] = Group 2, 20 μL ×1 oral, section 1 d after final administration, total 20 μL
# [22] = Group 3, 10 μL ×4 oral, section 1 d after final administration, total 40 μL
# [23] = Group 4, 20 μL ×4 oral, section 1 d after final administration, total 80 μL
# [24] = Group 5, 80 μL ×1 oral, section 1 d after final administration, total 80 μL
# [25] = Group 6, 20 μL ×1 oral, section 5 d after final administration, total 20 μL
# [26] = Group 7, 10 μL ×4 oral, section 5 d after final administration, total 40 μL
# [27] = Group 8, 80 μL ×1 oral, section 5 d after final administration, total 80 μL
# [28] = Group 9, 20 μL ×4 oral, section 5 d after final administration, total 80 μL
# [29] = Group 10, 10 μL ×4 oral, section 12 d after final administration, total 40 μL
# [30] = Group 11, 20 μL ×4 oral, section 12 d after final administration, total 80 μL
# [31] = day 5 after the exposures were completed
compound,measurement,setting,value
C=C(C)[C@H]1CC=C(C)CC1 [d-limonene],initiation of breast cancer,[1],almost completely prevented
vitamin A,inflammation-relevant gene expression alterations blocked,[2],about 80%
C=C(C)[C@@H]1CCC2=CC(=O)C[C@@H](C)[C@]2(C)C1 [nootkatone],loricrin and filaggrin and vascular endothelial growth factor (VEGF) genes,[3],upregulation
same,matrix metalloproteinases,[3],downregulation
same,inflammation genes induced by UVR,[3],blocked
same,cutaneous inflammation and erythema after UVR,[4],blocked
CC(C)=CCC/C(C)=C/CO [Geraniol],effectiveness relative to perillyl alcohol,[5],about 5 fold
C/C=C/C(=O)C1=C(C)C=CCC1(C)C [beta-damascenone],inflammation-relevant genes,[3]; [13],strongly down-regulated
same,number of gene categories significantly (p<0.05) down-regulated,[3]; [13],13
same,only significantly (p<0.05) altered up-regulated category at level 4 of Gene Ontology Tree,[3]; [13],epidermal cell differentiation
same,loricrin and filaggrin and vascular endothelial growth factor (VEGF) genes,[3],upregulation
same,matrix metalloproteinases,[3],downregulation
same,inflammation genes induced by UVR,[3],blocked
same,Areas with no sunburn,[6]; [14],11.0
same,Areas with sunburn,[6]; [14],1.0
same,Areas with no sunburn,[6]; [15],6.0
same,Areas with sunburn,[6]; [15],2.0
same,Areas with no sunburn,[6]; [16],8.0
same,Areas with sunburn,[6]; [16],0.0
same,Areas with no sunburn,[6]; [17],7.0
same,Areas with sunburn,[6]; [17],5.0
same,Areas with no sunburn,[6]; [18],10.0
same,Areas with sunburn,[6]; [18],2.0
same,Areas with no sunburn,[6]; [19],3.0
same,Areas with sunburn,[6]; [19],1.0
same,Areas with no sunburn,[6]; [20],19.0
same,Areas with sunburn,[6]; [20],1.0
same,cutaneous inflammation and erythema after UVR,[4],blocked
same,Living Epidermis Thickness,[7]; Average (Groups 2-11),34.6 arbitrary units
same,Stratum Corneum Thickness,[7]; Average (Groups 2-11),21.0 arbitrary units
same,Living Epidermis Thickness,[7]; [21],35.0 arbitrary units
same,Stratum Corneum Thickness,[7]; [21],20.0 arbitrary units
same,Living Epidermis Thickness,[7]; [22],37.0 arbitrary units
same,Stratum Corneum Thickness,[7]; [22],15.3 arbitrary units
same,Living Epidermis Thickness,[7]; [23],36.0 arbitrary units
same,Stratum Corneum Thickness,[7]; [23],17.8 arbitrary units
same,Living Epidermis Thickness,[7]; [24],36.0 arbitrary units
same,Stratum Corneum Thickness,[7]; [24],16.3 arbitrary units
same,Living Epidermis Thickness,[7]; [25],38.5 arbitrary units
same,Stratum Corneum Thickness,[7]; [25],37.0 arbitrary units
same,Living Epidermis Thickness,[7]; [26],40.2 arbitrary units
same,Stratum Corneum Thickness,[7]; [26],20.2 arbitrary units
same,Living Epidermis Thickness,[7]; [27],36.2 arbitrary units
same,Stratum Corneum Thickness,[7]; [27],25.5 arbitrary units
same,Living Epidermis Thickness,[7]; [28],32.5 arbitrary units
same,Stratum Corneum Thickness,[7]; [28],21.2 arbitrary units
same,Living Epidermis Thickness,[7]; [29],30.7 arbitrary units
same,Stratum Corneum Thickness,[7]; [29],18.7 arbitrary units
same,Living Epidermis Thickness,[7]; [30],23.3 arbitrary units
same,Stratum Corneum Thickness,[7]; [30],21.7 arbitrary units
same,nucleated keratinocytes in the epidermis,[7]; [31],no corresponding increase
same,thickness of the stratum corneum,[7]; [31],highly significant increases
same,stratum corneum thickness (FIG. 4),"[7]; mouse, in vivo",consistently thickened
same,skin irritation,[8],No skin irritation
same,LD50,[9],greater than 2.0 g/kg
same,phototoxicity or photoallergenity,[10],No phototoxicity or photoallergenity
Oc1ccc(C=Cc2cc(O)cc(O)c2)cc1 [resveratrol],inhibition of colon cancer,[11],67%
"C=C(C)[C@@H]1CC=C(CO)CC1 [perillyl alcohol, reference compound]",effect on skin inflammation,[12],significant effect
same,initiation of breast cancer,[1],almost completely prevented
